The source made the active and inactive calls. The rule behind the calls is not given here.

The term EC50 denotes the concentration needed to bring the measured effect to its halfway point. What is called MRT is a mean duration of stay, worked out from the concentration-time curve. A word on the AUC: it is the area under the concentration-time curve, a measure of exposure.

The subject of data set [1] is Mus musculus. As to the kind of experiment: Antidiabetic activity in male […] assessed as decrease in serum LDL-C level at 30 nmol/kg, sc administered twice daily for 3 weeks. The data set is classed as functional, organism-based.
The test system of data set [2] is Mus musculus. As to the kind of experiment: Antidiabetic activity in male […] assessed as reduction in fasted glucose level at 30 nmol/kg, sc administered twice daily for 3 weeks. Type of data set: functional, organism-based.
Data set [3] has as its system Mus musculus. As to the kind of experiment: Antidiabetic activity in male […] assessed as increase in plasma insulin level at 30 nmol/kg, sc administered twice daily for 3 weeks. The data set is classed as functional, organism-based.
Data set [4] deals with Mus musculus. As to the kind of experiment: Antidiabetic activity in male […] assessed as increase in plasma FGF21 level at 30 nmol/kg, sc administered twice daily for 3 weeks. The data set is classed as functional, organism-based.
The subject of data set [5] is Mus musculus. Briefly: Antidiabetic activity in male […] assessed as reduction in body weight at 30 nmol/kg, sc administered twice daily for 3 weeks. The data set is classed as functional. Further details: scale not given: the % may be the effect or the level left.
A short description of data set [6]: Toxicity in male […] assessed as normalization of hepatic lipid content at 30 nmol/kg, sc administered twice daily for 3 weeks. The data set is classed as organism-based. As to conditions: in vivo, 504 h.
Data set [7] deals with Mus musculus. Briefly: Antidiabetic activity in male […] assessed as increase in serum HDL/LDL ratio at 30 nmol/kg, sc administered twice daily for 3 weeks. Type of data set: functional, organism-based.
In data set [8] the target is T1, Glucagon-like peptide 1 receptor (Homo sapiens, UniProt P43220). Briefly: Agonist activity at human GLP-1R expressed in HEK293 cells incubated for 30 mins and assessed as increase in cAMP accumulation measured by HTRF assay. Type of data set: functional, cell-based. (In general: Changes in cAMP serve as a functional read-out for many G protein-coupled receptors.)
T1 sequence (P43220 whole entry): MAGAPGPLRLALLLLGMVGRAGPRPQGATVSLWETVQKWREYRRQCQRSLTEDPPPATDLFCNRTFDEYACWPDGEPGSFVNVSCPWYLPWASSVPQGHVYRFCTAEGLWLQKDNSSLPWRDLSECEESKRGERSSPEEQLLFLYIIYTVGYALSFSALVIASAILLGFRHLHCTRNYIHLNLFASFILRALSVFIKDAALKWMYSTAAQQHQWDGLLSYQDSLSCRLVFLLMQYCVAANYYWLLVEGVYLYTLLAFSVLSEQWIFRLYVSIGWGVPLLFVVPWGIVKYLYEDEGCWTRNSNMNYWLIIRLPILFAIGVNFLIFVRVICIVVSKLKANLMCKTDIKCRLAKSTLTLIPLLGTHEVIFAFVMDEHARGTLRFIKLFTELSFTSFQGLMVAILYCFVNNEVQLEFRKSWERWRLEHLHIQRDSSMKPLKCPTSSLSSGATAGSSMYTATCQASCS

Data set [9] addresses T1, Glucagon-like peptide 1 receptor. As to the kind of experiment: Agonist activity at human GLP-1R expressed in HEK293 cells incubated for 30 mins and assessed as increase in cAMP accumulation measured by HTRF assay relative to control. The data set is classed as functional, cell-based. Further details: concentration or dose not given beside the values.
The target in another data set is Glucagon receptor (Homo sapiens, UniProt P47871). As to the kind of experiment: Agonist activity at human GCGR expressed in HEK293 cells incubated for 30 mins and assessed as increase in cAMP accumulation measured by HTRF assay. The data set is classed as functional, cell-based.
Sequence of Glucagon receptor (P47871 whole entry): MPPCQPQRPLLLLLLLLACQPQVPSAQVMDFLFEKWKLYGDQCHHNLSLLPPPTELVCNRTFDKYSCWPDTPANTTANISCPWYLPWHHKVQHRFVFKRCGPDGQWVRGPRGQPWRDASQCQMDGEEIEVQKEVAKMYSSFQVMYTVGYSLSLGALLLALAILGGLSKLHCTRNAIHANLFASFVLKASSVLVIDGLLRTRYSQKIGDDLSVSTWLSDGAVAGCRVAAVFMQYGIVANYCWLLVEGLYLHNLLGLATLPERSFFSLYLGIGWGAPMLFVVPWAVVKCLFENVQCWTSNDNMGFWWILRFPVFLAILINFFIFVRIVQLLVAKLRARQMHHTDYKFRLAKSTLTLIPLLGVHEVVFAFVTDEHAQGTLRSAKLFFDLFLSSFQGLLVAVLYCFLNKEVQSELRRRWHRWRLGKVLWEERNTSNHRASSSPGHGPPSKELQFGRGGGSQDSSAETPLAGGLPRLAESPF
Data set [10] can be described thus: Toxicity in male […] assessed as decrease in hepatic lipid content at 40 nmol/kg, sc administered twice daily for 3 weeks. Type of data set: organism-based. The settings on record: in vivo, 504 h.
Data set [11] is described as follows: MRT in male Sprague-Dawley rat at 25 nmol/kg, sc administered as single dose and measured after 24 hrs by LC-MS/MS analysis. The data set is classed as ADME, organism-based. The settings on record: in vivo.
Data set [12] is described as follows: AUC (inifinity) in male Sprague-Dawley rat at 25 nmol/kg, sc administered as single dose and measured after 24 hrs by LC-MS/MS analysis. Type of data set: ADME, organism-based. Further details: dose 25 nmol/kg, time 24 hrs, route sc. The settings on record: in vivo.

As for `CCCCCCCCCCCCCCCC(=O)N[C@@H](CCC(=O)N[C@@H](CCC(=O)NCCCC[C@H](NC(=O)[C@H](CC(=O)O)NC(=O)[C@H](CO)NC(=O)[C@@H](NC(=O)[C@H](Cc1ccccc1)NC(=O)[C@@H](NC(=O)CNC(=O)[C@H](CCC(N)=O)NC(=O)[C@H](CO)NC(=O)[C@@H](N)Cc1cnc[nH]1)[C@@H](C)O)[C@@H](C)O)C(=O)N[C@@H](CO)C(=O)N[C@@H](CCC(=O)O)C(=O)N[C@@H](Cc1ccc(O)cc1)C(=O)N[C@@H](CC(C)C)C(=O)N[C@@H](CC(=O)O)C(=O)N[C@@H](CO)C(=O)N[C@@H](CCC(=O)O)C(=O)N[C@@H](CCCNC(=N)N)C(=O)N[C@@H](C)C(=O)N[C@@H](CCCNC(=N)N)C(=O)N[C@@H](CC(=O)O)C(=O)N[C@@H](Cc1ccccc1)C(=O)N[C@H](C(=O)N[C@@H](C)C(=O)N[C@@H](Cc1c[nH]c2ccccc12)C(=O)N[C@@H](CC(C)C)C(=O)N[C@@H](CCC(=O)O)C(=O)N[C@@H](C)C(=O)NCC(=O)NCC(=O)O)C(C)C)C(=O)O)C(=O)O`, the outcome with Mus musculus [1], in the data set with Mus musculus [2], with Mus musculus [3], in the data set on Mus musculus [4] and in the data set with Mus musculus [7] was Active. The Activity in the data set with Mus musculus [5] is recorded as 26.4%; in data set [6], “Non-Toxic”.
Consider H-HSQGTYTNDVSKYLDSRRAQDFIEWLIKG-NH2, for which the figures for the EC50 (in data set [8]; at Glucagon receptor) were 0.56 nM and 1.9 nM, respectively. Besides, in [9], the Activity stood at 7.3%.
Take “H-HSQGTYTNDVSKYLDSRRAQDFIEWLKNGGPSSGAPPPS-NH2”: the EC50 in data set [8] amounted to 0.053 nM; at Glucagon receptor, 0.15 nM. For the same compound, the Activity in data set [9] (filed as agonist) worked out at 77.4%.
With `CCCCCCCCCCCCCCCC(=O)N[C@@H](CCC(=O)NCCCC[C@H](NC(=O)[C@H](C)NC(=O)[C@H](C)NC(=O)[C@H](CCC(N)=O)NC(=O)CNC(=O)[C@H](CCC(=O)O)NC(=O)[C@H](CC(C)C)NC(=O)[C@H](Cc1ccc(O)cc1)NC(=O)[C@H](CO)NC(=O)[C@H](CO)NC(=O)[C@@H](NC(=O)[C@H](CC(=O)O)NC(=O)[C@H](CO)NC(=O)[C@@H](NC(=O)[C@H](Cc1ccccc1)NC(=O)[C@@H](NC(=O)CNC(=O)[C@H](CCC(=O)O)NC(=O)[C@H](C)NC(=O)[C@@H](N)Cc1cnc[nH]1)[C@@H](C)O)[C@@H](C)O)C(C)C)C(=O)N[C@@H](CCC(=O)O)C(=O)N[C@@H](Cc1ccccc1)C(=O)N[C@H](C(=O)N[C@@H](C)C(=O)N[C@@H](Cc1c[nH]c2ccccc12)C(=O)N[C@@H](CC(C)C)C(=O)N[C@H](C(=O)N[C@@H](CCCNC(=N)N)C(=O)NCC(=O)N[C@@H](CCCNC(=N)N)C(=O)NCC(=O)O)C(C)C)[C@@H](C)CC)C(=O)O`, the Activity entry in data set [10] is recorded as “Toxic”. In [11], the MRT is 6.6 h. The same compound came in with an AUC at 24 h in data set [12] of 3410 ng·h/mL.

Source of the values: ChEMBL document CHEMBL5214890 (Eur J Med Chem, 2021).
